System: mixture of 9 types of Fusobacteria
Assay: ELISA binding affinity of selected M13 bacteriophage clones to Fusobacteria (FIG. 4D)
Design: species or system Fusobacterium nucleatum
Details: M13 bacteriophage displaying the peptide, plate coated with Fusobacteria, M13-HRP antibody, TMB, absorbance at OD450
Method: A mixture of 9 types of Fusobacteria or each of the 9 types of Fusobacteria was coated on a plate, and a blocking reaction was performed using a 5% BSA solution to prevent non-specific binding. Each selected M13 bacteriophage was reacted on the plate coated with Fusobacteria. The plate was washed three times with phosphate buffer solution containing 0.1% Tween 20, and then reacted with an M13-HRP antibody. The reaction plate was washed three times with phosphate buffer solution containing 0.1% Tween 20 and reacted using a TMB color solution. The reaction was stopped with 1 M sulfuric acid (H2SO4), and the absorbance was measured at OD450 to compare the binding affinity.

PPWLADI [SEQ ID NO: 81]
binding affinity to Fusobacteria (ELISA): highest binding affinity

Source: patent US20240402182A1, “PEPTIDE TARGETING FUSOBACTERIA, COMPOSITION FOR DIAGNOSING CANCER COMPRISING SAME, AND DRUG DELIVERY COMPOSITION” (INDUSTRY-ACADEMIC COOPERATION FOUNDATION, YONSEI UNIVERSITY, priority 2021, published 2024)
